Measurements: patent US11116219B2, “Method for controlling discharge-type multidrug resistant plant diseases” (SUMITOMO CHEMICAL COMPANY, LIMITED, priority 2017, dated 2021)

Assays:
[1] = tested on: efflux type multidrug resistant fungus strain 3: ABC transporter and MFS transporter-overexpressing fungus strain (Bc-103) of grapes gray mold fungus (Botrytis …); assay: Control test against efflux type multidrug resistant grapes gray mold fungus, strain 3; format: cell-based, Botrytis cinerea
Description: (§1) Control Test Against Efflux Type Multidrug Resistant Grapes Gray Mold Fungus (Botrytis cinerea)
(§2) Each of the present compound (1), fludioxonil and tolnaftrate was diluted with dimethyl sulfoxide to a prescribed concentration thereof, respectively. Each of the chemical solutions comprising the respective testing compound was dispensed into a titer plate (with 96 wells) in the amount of 1 μL. […] The plate was cultured at 18° C. for 2 days, thereby allowing each grapes gray mold fungus to undergo proliferation, and the absorbance at 600 nm of each well of the titer plate was then measured to determine a degree of growth of each of the grapes gray mold fungi (treated group). […]
(§3) The efficacy was calculated from the degree of the growth by the below-mentioned “Equation 1”, and then each EC50 value of the testing compound, respectively against the efflux type multidrug resistant fungus strains and the wild-type fungus strain was calculated. Also, an EC50 value ratio was calculated by the above-mentioned “Equation 2”.

[2] = tested on: grapes gray mold fungus (Botrytis cinerea) wild-type fungus strain; assay: Control test against grapes gray mold fungus, wild-type fungus strain (titer plate growth, absorbance at 600 nm); format: cell-based; details: PDB culture media, 18° C., 2 days
Description: as §1, §2, §3

[3] = tested on: Efflux type multidrug resistant wheat Septoria leaf blotch fungus (Zymoseptoria tritici), fungus strain St 106-6; assay: Control test against efflux type multidrug resistant wheat Septoria leaf blotch fungus (titer plate growth, absorbance at 600 nm); format: cell-based
Description: (§4) Control test against Efflux type multidrug resistant wheat Septoria leaf blotch fungus (Zymoseptoria tritici)
as §2, with “(1)” for “(1), fludioxonil”, “4” for “2”, “wheat Septoria leaf blotch” for “grapes gray mold”, “of” for “of each of”, “wheat Septoria leaf blotch fungus” for “grapes gray mold fungi”
(§5) The efficacy was calculated from the degree of the growth by the below-mentioned “Equation 1”, and then each EC50 value of the testing compound, respectively against the efflux type multidrug resistant fungus strains and the wild-type fungus strain was calculated. Next, as shown in the below-mentioned “Equation 2”, an EC50 value ratio was calculated by dividing an EC50 value against the efflux type multidrug resistant fungus strains by an EC50 value against the wild-type fungus strain. […]

[4] = tested on: efflux type multidrug resistant fungus strain 1: ABC transporter-overexpressing fungus strain (Bc-56) of grapes gray mold fungus (Botrytis cinerea); assay: Control test against efflux type multidrug resistant grapes gray mold fungus, strain 1; format: cell-based
Description: as §1, §2, §3

[5] = tested on: wheat Septoria leaf blotch fungus (Zymoseptoria tritici) wild-type fungus strain; assay: Control test against wheat Septoria leaf blotch fungus, wild-type fungus strain (titer plate growth, absorbance at 600 nm); format: cell-based; details: PDB culture media, 18° C., 4 days
Description: as §4
as §2, with “(1)” for “(1), fludioxonil”, “4” for “2”, “wheat Septoria leaf blotch” for “grapes gray mold”, “of” for “of each of”, “wheat Septoria leaf blotch fungus” for “grapes gray mold fungi”
as §5

[6] = tested on: efflux type multidrug resistant fungus strain 2: MFS transporter-overexpressing fungus strain (Bc-107) of grapes gray mold fungus (Botrytis cinerea); assay: Control test against efflux type multidrug resistant grapes gray mold fungus, strain 2; format: cell-based
Description: as §1, §2, §3

Cn1c(=O)c2sc3c(=O)n(C)c(=O)c3sc2c1=O [Present compound (1)]
EC50 value, Efflux type multidrug resistant fungus strain 3 ([1]; Botrytis cinerea Bc-103 (ABC and MFS transporter-overexpressing), 18° C., 2 days): 2.4 ppm | EC50 value ratio 3 ([1]; EC50 against efflux type multidrug resistant strain 3 / EC50 against wild-type, Botrytis cinerea): 1.3 | EC50 value, Wild-type fungus strain [2]: 1.9 ppm | EC50 value ratio ([3]; EC50 against efflux type multidrug resistant fungus strain / EC50 against wild-type fungus strain, Zymoseptoria tritici): 1.1 | EC50 value, Efflux type multidrug resistant fungus strain ([3]; Zymoseptoria tritici St 106-6, PDB culture media, 18° C., 4 days): 1.3 ppm | EC50 value, Efflux type multidrug resistant fungus strain 1 ([4]; Botrytis cinerea Bc-56 (ABC transporter-overexpressing), 18° C., 2 days): 1.7 ppm | EC50 value ratio 1 ([4]; EC50 against efflux type multidrug resistant strain 1 / EC50 against wild-type, Botrytis cinerea): 0.89 | EC50 value, Wild-type fungus strain [5]: 1.2 ppm | EC50 value, Efflux type multidrug resistant fungus strain 2 ([6]; Botrytis cinerea Bc-107 (MFS transporter-overexpressing), 18° C., 2 days): 1.7 ppm | EC50 value ratio 2 ([6]; EC50 against efflux type multidrug resistant strain 2 / EC50 against wild-type, Botrytis cinerea): 0.89
